We go through 13 molecules from PMC8270334, “Design, Sustainable Synthesis and Biological Evaluation of a Novel Dual α2A/5-HT7 Receptor Antagonist with Antidepressant-Like Properties” (Molecules, 2021).

T1 sequence (P34969 1-432): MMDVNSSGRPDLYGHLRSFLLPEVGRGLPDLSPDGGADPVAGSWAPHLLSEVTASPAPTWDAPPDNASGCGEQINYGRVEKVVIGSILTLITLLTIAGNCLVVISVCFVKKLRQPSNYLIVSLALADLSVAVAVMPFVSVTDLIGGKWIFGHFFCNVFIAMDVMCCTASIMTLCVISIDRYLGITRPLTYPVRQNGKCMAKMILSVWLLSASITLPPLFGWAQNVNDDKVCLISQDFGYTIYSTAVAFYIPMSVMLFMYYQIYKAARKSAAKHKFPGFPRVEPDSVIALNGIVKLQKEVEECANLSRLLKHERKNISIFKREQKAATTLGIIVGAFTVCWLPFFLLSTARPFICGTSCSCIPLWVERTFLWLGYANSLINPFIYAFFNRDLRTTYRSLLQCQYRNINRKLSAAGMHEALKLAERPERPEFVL

For one data set, the system named is Albino Swiss mice. Put plainly: forced swim test. To be noted: ip, 30 min before test. It is filed as in vivo. As to the method:
Adult male Albino Swiss mice (CD-1, 8 weeks old, 25–30 g: Jagiellonian University Medical College, Krakow, Poland) were used in the study. Animals were housed in groups of 8 in a transparent plastic cage (382 × 220 × 150 mm) at room temperature (22 ± 2 °C), on a 12 h light/dark cycle with ad libitum access to food and water. Mice were handled for one week before starting the experimental procedures. The separate groups of animals were used in the forced swim test and in the locomotor studies. All studies were approved by the Institutional Animal Care and Ethics Committee of the Jagiellonian University (approval no.: 80/2015). […] Tested compounds were dissolved with 1% Tween 80. […] The control animals were given ip injections of the 2% DMSO in 1% Tween 80 (vehicle). The volume of vehicle or drug solutions was 10 mL/kg. The experiment was performed on mice according to the method previously described. Mice were forced to swim individually in the glass cylinders (height 25 cm, diameter 10 cm) filled with water at 24 ± 1 °C to a depth of 10 cm and left there for 6 min. Following a 2 min habituation period, total time spent immobile was recorded over the next 4 min. The animal was regarded as immobile when it remained floating passively in the water, making only small movements to keep its head above the water.
For `CN1CCN2c3ncccc3Cc3ccccc3C2C1` (centres unmarked) [Mirtazapine, reference compound], the “active dose in FST (antidepressant-like effect)” value is reported as 16 mg/kg.

A further data set has as its target T1, human 5-HT7b receptor (Homo sapiens, UniProt P34969).
T1 construct: expressed in transfected cells; host or cells: HEK293
Experiment: not given
Conditions: Figure 1, earlier lead; read-out: Ki (5-HT7R); cited from earlier work.
By Ki is commonly meant the equilibrium dissociation constant of an inhibitor or competing ligand from its target. On to `CC(C)Oc1ccccc1OCCN1CCC(NS(=O)(=O)c2ccc(F)cc2)CC1` [PZ-971], for which the inhibitory constant (Ki) was 21 nM.

The next data set concerns Albino Swiss mice. Put plainly: spontaneous locomotor activity. To be noted: ip, doses effective in the FST (6: 4, 8 mg/kg; mirtazapine: 16 mg/kg). It is filed as in vivo. As to the method:
Adult male Albino Swiss mice (CD-1, 8 weeks old, 25–30 g: Jagiellonian University Medical College, Krakow, Poland) were used in the study. Animals were housed in groups of 8 in a transparent plastic cage (382 × 220 × 150 mm) at room temperature (22 ± 2 °C), on a 12 h light/dark cycle with ad libitum access to food and water. Mice were handled for one week before starting the experimental procedures. The separate groups of animals were used in the forced swim test and in the locomotor studies. All studies were approved by the Institutional Animal Care and Ethics Committee of the Jagiellonian University (approval no.: 80/2015).
Tested compounds were dissolved with 1% Tween 80. […] The control animals were given ip injections of the 2% DMSO in 1% Tween 80 (vehicle). The volume of vehicle or drug solutions was 10 mL/kg.
Locomotor activity was recorded with an Opto M3 multichannel activity monitor, photoresistor actometers connected to a counter for the recording of light-beam interruptions (MultiDevice Software v1.3, Columbus Instruments, Columbus, OH, USA). The mice, after being placed into the cages individually, had their activity evaluated between the 2nd and the 6th minute. The chosen time period corresponded with the time interval considered in the FST. Spontaneous locomotor activity was evaluated as the distance travelled plus the movements of climbing by animals.
As to `CN1CCN2c3ncccc3Cc3ccccc3C2C1` (centres unmarked) [Mirtazapine, reference compound], the “influence on spontaneous locomotor activity (sedation)” value is “induced sedation”.

The target in another data set is T1, human 5-HT7b receptor. Kind of data set: radioligand binding, [3H]-5-CT displacement at 5-HT7R in HEK293 cells. Conditions: read-out: Ki [nM] ± SEM 5-HT7. The procedure:
All experiments were performed using HEK293 cells stably expressing human 5-HT1A, 5-HT6, 5-HT7b, and D2L receptors or CHO-K1 cells with a plasmid containing the human 5-HT2A receptor coding sequence (PerkinElmer, Waltham, MA, USA), according to previously reported procedures. Cells were cultured in 150 cm^2 flasks and, after reaching a 90% confluence, were washed with PBS and the centrifugated (200 g) in PBS containing 0.1 mM EDTA and 1 mM dithiothreitol. Cell pellets were subsequently homogenized (in Ultra Turrax tissue homogenizer) and centrifugated twice (35,000× g for 15 min at 4 °C), with 15 min incubation at 37 °C between the centrifugations. All assays were incubated in dedicated buffers and in a total volume of 200 µL in 96-well microtitre plates for 1 h at 37 °C, except for 5-HT1AR and 5-HT2AR that was incubated for 1 h at room temperature. The process of equilibration is terminated by rapid filtration through Unifilter-96 (PerkinElmer) plates with a 96-well cell harvester and radioactivity retained on the filters was quantified on a Microbeta plate reader (PerkinElmer, USA). For displacement studies, the following assay samples containing the proper radioligand were used: 2.5 nM [^3H]-8-OH-DPAT (PerkinElmer, #NET929001MC) for 5-HT1AR; 1 nM [^3H]-ketanserin (PerkinElmer, #NET791250UC) for 5-HT2AR; 2 nM [^3H]-LSD (PerkinElmer, #NET638250UC) for 5-HT6R; and 0.8 nM [^3H]-5-CT (PerkinElmer, #NET1188U100UC) for 5-HT7R or 2.5 nM [^3H]-raclopride (PerkinElmer, #NET975001MC) for D2LR. Non-specific binding was determined using 10 μM 5-HT for 5-HT1AR and 5-HT7R, 20 μM mianserin for 5-HT2AR, 10 μM methiothepine for 5-HT6R, and 10 μM haloperidol for D2LR. […] Results were expressed as means of at least three separate experiments.
For the molecule `CC1(C)Cc2cccc(OCCN3CCC(NS(=O)(=O)c4cccc(Cl)c4)CC3)c2O1` [Compound 7, 3-Chloro-N-{1-[2-(2,2-dimethyl-2,3-dihydrobenzofuran-7-yloxy)ethyl]piperidin-4-yl}benzenesulfonamide], the inhibition constant (Ki) was determined as 64 ± 15 nM.
For `COc1ccc(Cl)cc1S(=O)(=O)NC1CCN(CCOc2cccc3c2OC(C)(C)C3)CC1` [Compound 9, 5-Chloro-2-methoxy-N-{1-[2-(2,2-dimethyl-2,3-dihydrobenzofuran-7-yloxy)ethyl]piperidin-4-yl}benzenesulfonamide], the Ki was 86 ± 26 nM.
On to `COc1ccc(OC)c(S(=O)(=O)NC2CCN(CCOc3cccc4c3OC(C)(C)C4)CC2)c1` [Compound 10, 2,5-Dimethoxy-N-{1-[2-(2,2-dimethyl-2,3-dihydrobenzofuran-7-yloxy)ethy]piperidin-4-yl}benzenesulfonamide], for which the inhibitory constant (Ki) stood at 95 ± 18 nM.
Take `CC1(C)Cc2cccc(OCCN3CCC(NS(=O)(=O)c4cccc5ccccc45)CC3)c2O1` [Compound 11, 1-Naphthalene-N-{1-[2-(2,2-dimethyl-2,3-dihydrobenzofuran-7-yloxy)ethyl]piperidin-4-yl}sulfonamide]: the Ki is 50 ± 16 nM.
Take `CC1(C)Cc2cccc(OCCN3CCC(NS(=O)(=O)c4ccc5ccccc5c4)CC3)c2O1` [Compound 12, 2-Naphthalene-N-{1-[2-(2,2-dimethyl-2,3-dihydrobenzofuran-7-yloxy)ethyl]piperidin-4-yl}sulfonamide]: the inhibition constant Ki was 67 ± 21 nM.
Still for that read-out and setting: for `CC1(C)Cc2cccc(OCCN3CCC(CNS(=O)(=O)c4ccc(F)cc4)CC3)c2O1` [Compound 14, 4-Fluoro-N-({1-[2-(2,2-dimethyl-2,3-dihydrobenzofuran-7-yloxy)ethyl]piperidin-4-yl}methyl)benzenesulfonamide] the value was 727 ± 65 nM; for `CC1(C)Cc2cccc(OCCN3CCC(CNS(=O)(=O)c4cccc(Cl)c4)CC3)c2O1` [Compound 15, 3-Chloro-N-({1-[2-(2,2-dimethyl-2,3-dihydrobenzofuran-7-yloxy)ethyl]piperidin-4-yl}methyl)benzenesulfonamide], 664 ± 82 nM.
The same measure, in the same setting: the figure for `CC1(C)Cc2cccc(OCCN3CCC(CNS(=O)(=O)c4cc(Cl)ccc4F)CC3)c2O1` [Compound 16] is 316 ± 73 nM; for `COc1ccc(Cl)cc1S(=O)(=O)NCC1CCN(CCOc2cccc3c2OC(C)(C)C3)CC1` [Compound 17, 5-Chloro-2-methoxy-N-({1-[2-(2,2-dimethyl-2,3-dihydrobenzofuran-7-yloxy)ethyl]piperidin-4-yl}methyl)benzenesulfonamide] it is 488 ± 70 nM; for `CC1(C)Cc2cccc(OCCN3CCC(CNS(=O)(=O)c4cccc5ccccc45)CC3)c2O1` [Compound 18, 1-Naphthalene-N-({1-[2-(2,2-dimethyl-2,3-dihydrobenzofuran-7-yloxy)ethyl]piperidin-4-yl}methyl)sulfonamide] it is 366 ± 69 nM.
For the molecule `CC1(C)Cc2cccc(OCCN3CCC(CNS(=O)(=O)c4cncc5ccccc45)CC3)c2O1` [Compound 19, 4-Isoquinoline-N-({1-[2-(2,2-dimethyl-2,3-dihydrobenzofuran-7-yloxy)ethyl]piperidin-4-yl}methyl)sulfonamide], the Ki worked out at 387 ± 58 nM.
